Patent publication US10245261B2, “Substituted indol-5-ol derivatives and their therapeutic applications” (NantBioScience, Inc., priority 2013, dated 2019)
pIC50: −log10 of the molar value. Blank lines part the entries; values can stand above or below the compound they belong to.

Legend:
[1] = biological target: Abl (H396P) (h) (Homo sapiens, UniProt P00519, H396P); experiment: KinaseProfiler kinase assay; assay type: biochemical
[2] = biological target: Abl (M351T)(h) (Homo sapiens, UniProt P00519, M351T); experiment: KinaseProfiler kinase assay; assay type: biochemical
[3] = biological target: Abl (Q252H) (h) (Homo sapiens, UniProt P00519, Q252H); experiment: KinaseProfiler kinase assay; assay type: biochemical
[4] = biological target: Ret (V804L)(h) (Homo sapiens, UniProt P07949, V804L); experiment: KinaseProfiler kinase assay; assay type: biochemical
In short: (§1)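 Steps: compound diluted from DMSO into MOPS/BSA assay buffer; MgATP mix with [γ-33P]ATP added to start; 40 min incubation at room temperature; phosphoric acid stop; filtermat spotting, washing in 50 mM phosphoric acid and methanol; scintillation counting.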

[5] = biological target: Ret(V804M)(h) (Homo sapiens, UniProt P07949, V804M); experiment: KinaseProfiler kinase assay; assay type: biochemical
In short: as §1

[6] = biological target: FGFR2(h) (Homo sapiens, UniProt P21802); experiment: KinaseProfiler kinase assay; assay type: biochemical
[7] = biological target: FGFR3(h) (Homo sapiens, UniProt P22607); experiment: KinaseProfiler kinase assay; assay type: biochemical
[8] = biological target: FGFR4(h) (Homo sapiens, UniProt P22455); experiment: KinaseProfiler kinase assay; assay type: biochemical
[9] = biological target: Flt1(h) (Homo sapiens, UniProt P17948); experiment: KinaseProfiler kinase assay; assay type: biochemical
[10] = test system: K562; experiment: CellTiterBlue cell growth inhibition; assay type: cell-based; conditions: Homo sapiens; K562, 72 hours
Method: (§2) This example illustrated the proliferating cell growth inhibition of selected compounds from this invention. To do this, the cells were seeded into fresh Iscove's growth medium at a density of 0.4e6 cells/ml and grown in log phase for 24 hr. Cells were then resuspended in their fresh respective growth media at 0.1e^6 cells/ml and plated into 384 well black, clear-bottom microplates at 36 ul/well. Test compounds and controls were initially dissolved in DMSO at the desired concentration, then serially diluted to the assay buffer. These solutions were added and cells were incubated for 72 hours at 37° C. CellTiterBlue (Promega cat# G7572) was added on the Beckman FX. Plates were returned to the 37° C. CO2 incubator for 4 hr and then fluorescence was determined on the Victor plate reader. Data were processed using Microsoft Excel, and GI50 values were generated using Prism (GraphPad Software, San Diego, Calif.).

[11] = test system: MV4.11; experiment: CellTiterBlue cell growth inhibition; assay type: cell-based; conditions: Homo sapiens; MV4.11, 72 hours
Method: as §2

[12] = test system: human MIAPaCa-2 pancreatic carcinoma xenograft; experiment: Pancreatic carcinoma xenograft in athymic nude mice; assay type: in vivo, mouse; conditions: MIAPaCa-2 xenograft; for anti-tumor effect: nude mice, single agent
In short: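 Athymic nude mice were implanted s.c. in both flanks with 0.1 ml of 5.0×10^7 MIAPaCa-2 cells/mL. Dosing ran 5 days on/2 off: two cycles for NTW-3475 (25, 50 mg/kg) and Abraxane (20 mg/kg), three cycles for the other compounds (40 mg/kg), each alongside vehicle. Tumours were caliper-measured two to three times weekly.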

[13] = test system: TT human Thyroid carcinoma xenograft; experiment: Thyroid carcinoma xenograft; assay type: in vivo, mouse
Method: This example assesses Compound 10, 53 and 88's anti-tumor activity using a SCID mouse xenograft models for TT human Thyroid carcinoma xenograft (FIGS. 65 to 69.)
On the appropriate days, each animal in an appropriate group will receive a specific amount of Compound 10 either at 50 or 100 mg/kg, and the dosing volume is 10 ml/kg by oral gavage as indicated. Dosing schedule will be once daily for 30 days.
On the appropriate days, each animal in an appropriate group will receive a specific amount of Compound 53 either at 50 or 100 mg/kg, and the dosing volume is 10 ml/kg by oral gavage as indicated. Dosing schedule will be once daily for 30 days.
Dosing schedule will be once daily for 30 days.

Sequence of FGFR3(h) (P22607 23-806): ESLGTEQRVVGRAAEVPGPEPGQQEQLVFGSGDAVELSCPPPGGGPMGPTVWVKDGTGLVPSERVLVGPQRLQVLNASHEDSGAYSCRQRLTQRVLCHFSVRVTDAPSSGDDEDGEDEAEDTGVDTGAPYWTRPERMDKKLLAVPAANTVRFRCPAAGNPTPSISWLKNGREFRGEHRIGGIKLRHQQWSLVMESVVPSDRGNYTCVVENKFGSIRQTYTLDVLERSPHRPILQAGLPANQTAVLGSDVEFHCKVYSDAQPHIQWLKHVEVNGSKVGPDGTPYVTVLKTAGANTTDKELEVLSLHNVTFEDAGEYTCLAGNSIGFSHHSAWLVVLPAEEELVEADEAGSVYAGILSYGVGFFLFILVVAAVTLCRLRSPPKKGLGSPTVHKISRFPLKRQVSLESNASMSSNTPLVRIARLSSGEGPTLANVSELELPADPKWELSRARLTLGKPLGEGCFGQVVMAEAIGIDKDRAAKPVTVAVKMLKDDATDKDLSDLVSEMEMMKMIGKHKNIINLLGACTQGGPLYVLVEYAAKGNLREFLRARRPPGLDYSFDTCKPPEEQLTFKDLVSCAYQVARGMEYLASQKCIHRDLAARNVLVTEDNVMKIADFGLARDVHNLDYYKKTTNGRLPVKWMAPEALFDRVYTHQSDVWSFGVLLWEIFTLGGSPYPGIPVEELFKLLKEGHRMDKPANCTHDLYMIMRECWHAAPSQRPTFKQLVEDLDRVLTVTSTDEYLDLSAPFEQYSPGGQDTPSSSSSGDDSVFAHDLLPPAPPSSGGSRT
Sequence of Flt1(h) (P17948 27-1338): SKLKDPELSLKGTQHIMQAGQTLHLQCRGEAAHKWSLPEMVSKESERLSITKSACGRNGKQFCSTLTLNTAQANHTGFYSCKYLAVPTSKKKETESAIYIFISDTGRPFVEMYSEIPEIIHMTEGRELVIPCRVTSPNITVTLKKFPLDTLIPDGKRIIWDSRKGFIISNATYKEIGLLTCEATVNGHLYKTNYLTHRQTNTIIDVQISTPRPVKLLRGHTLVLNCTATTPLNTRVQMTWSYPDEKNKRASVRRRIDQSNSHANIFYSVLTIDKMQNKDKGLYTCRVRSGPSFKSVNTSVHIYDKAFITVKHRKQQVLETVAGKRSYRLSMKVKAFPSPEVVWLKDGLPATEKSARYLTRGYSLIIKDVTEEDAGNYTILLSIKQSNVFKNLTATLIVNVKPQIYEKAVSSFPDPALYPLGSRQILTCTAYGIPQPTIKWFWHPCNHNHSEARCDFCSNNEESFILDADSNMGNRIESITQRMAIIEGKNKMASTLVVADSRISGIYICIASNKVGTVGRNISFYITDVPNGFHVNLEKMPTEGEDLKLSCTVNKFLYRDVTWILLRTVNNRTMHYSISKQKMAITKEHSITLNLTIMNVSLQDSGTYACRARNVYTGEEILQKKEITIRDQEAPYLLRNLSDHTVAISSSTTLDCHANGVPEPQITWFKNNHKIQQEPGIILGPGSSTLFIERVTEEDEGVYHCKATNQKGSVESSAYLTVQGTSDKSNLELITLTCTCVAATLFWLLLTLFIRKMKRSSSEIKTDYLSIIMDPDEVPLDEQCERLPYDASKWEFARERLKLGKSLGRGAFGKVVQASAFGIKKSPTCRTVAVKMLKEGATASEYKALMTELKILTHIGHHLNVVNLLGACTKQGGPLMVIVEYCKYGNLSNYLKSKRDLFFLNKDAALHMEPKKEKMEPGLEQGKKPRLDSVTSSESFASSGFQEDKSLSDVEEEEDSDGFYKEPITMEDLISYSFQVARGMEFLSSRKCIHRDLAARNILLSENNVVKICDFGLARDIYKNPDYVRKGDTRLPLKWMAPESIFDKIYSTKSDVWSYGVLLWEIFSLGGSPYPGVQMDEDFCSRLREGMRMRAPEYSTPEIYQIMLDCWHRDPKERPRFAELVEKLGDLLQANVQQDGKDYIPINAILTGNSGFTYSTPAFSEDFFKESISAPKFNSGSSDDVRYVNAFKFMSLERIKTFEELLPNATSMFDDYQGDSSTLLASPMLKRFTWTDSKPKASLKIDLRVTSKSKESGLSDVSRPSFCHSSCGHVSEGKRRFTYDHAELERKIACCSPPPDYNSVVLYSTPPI
Sequence of FGFR2(h) (P21802 22-821): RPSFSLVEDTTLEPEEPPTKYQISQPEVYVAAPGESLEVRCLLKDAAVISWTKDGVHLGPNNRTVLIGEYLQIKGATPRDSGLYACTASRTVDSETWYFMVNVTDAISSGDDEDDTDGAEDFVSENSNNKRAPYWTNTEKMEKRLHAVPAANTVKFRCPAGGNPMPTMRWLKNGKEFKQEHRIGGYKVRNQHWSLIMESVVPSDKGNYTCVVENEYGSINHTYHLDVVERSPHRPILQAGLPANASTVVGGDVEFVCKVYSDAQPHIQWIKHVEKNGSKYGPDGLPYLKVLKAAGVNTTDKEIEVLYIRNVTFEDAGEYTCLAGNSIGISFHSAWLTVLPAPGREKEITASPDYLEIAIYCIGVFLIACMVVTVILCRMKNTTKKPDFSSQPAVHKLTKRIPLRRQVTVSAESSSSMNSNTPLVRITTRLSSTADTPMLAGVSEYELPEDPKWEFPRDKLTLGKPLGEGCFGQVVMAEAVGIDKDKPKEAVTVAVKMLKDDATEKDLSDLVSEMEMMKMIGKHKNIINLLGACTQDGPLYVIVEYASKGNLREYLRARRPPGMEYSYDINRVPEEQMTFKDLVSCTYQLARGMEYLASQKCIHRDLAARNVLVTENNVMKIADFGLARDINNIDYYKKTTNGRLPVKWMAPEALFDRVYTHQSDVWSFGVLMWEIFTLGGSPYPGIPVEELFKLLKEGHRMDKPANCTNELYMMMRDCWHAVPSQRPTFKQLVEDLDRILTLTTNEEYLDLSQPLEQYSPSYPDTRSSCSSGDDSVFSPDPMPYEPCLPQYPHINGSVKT
Sequence of Ret (V804L)(h) (P07949 29-1114 V804L): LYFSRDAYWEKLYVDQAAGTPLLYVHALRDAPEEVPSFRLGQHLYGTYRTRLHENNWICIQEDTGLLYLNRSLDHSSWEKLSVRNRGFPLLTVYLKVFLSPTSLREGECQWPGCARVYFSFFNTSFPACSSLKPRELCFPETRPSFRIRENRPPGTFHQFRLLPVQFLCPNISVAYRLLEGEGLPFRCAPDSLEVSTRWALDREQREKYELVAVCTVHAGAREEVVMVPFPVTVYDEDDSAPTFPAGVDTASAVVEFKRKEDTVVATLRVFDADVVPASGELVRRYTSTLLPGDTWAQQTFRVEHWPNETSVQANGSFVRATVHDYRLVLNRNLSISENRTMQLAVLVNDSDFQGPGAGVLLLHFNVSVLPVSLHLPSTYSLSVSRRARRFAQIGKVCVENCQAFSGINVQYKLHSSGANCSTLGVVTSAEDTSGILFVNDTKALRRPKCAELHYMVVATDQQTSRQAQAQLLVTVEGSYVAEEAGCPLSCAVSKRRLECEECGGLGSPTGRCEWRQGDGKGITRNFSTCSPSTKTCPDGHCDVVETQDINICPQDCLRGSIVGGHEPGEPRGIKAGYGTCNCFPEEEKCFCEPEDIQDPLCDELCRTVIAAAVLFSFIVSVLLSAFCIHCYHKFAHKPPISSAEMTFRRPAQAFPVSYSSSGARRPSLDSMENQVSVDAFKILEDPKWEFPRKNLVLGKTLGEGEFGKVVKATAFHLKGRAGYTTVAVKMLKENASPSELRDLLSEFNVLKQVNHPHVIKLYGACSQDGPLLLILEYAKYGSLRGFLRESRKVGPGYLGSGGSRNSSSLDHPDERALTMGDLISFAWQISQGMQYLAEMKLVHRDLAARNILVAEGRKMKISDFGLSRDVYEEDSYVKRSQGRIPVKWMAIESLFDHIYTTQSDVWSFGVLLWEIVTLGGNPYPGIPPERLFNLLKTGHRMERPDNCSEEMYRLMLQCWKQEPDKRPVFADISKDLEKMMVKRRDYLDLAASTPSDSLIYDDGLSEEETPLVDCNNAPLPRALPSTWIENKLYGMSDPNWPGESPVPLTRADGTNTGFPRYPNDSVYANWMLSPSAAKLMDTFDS
Sequence of FGFR4(h) (P22455 22-802): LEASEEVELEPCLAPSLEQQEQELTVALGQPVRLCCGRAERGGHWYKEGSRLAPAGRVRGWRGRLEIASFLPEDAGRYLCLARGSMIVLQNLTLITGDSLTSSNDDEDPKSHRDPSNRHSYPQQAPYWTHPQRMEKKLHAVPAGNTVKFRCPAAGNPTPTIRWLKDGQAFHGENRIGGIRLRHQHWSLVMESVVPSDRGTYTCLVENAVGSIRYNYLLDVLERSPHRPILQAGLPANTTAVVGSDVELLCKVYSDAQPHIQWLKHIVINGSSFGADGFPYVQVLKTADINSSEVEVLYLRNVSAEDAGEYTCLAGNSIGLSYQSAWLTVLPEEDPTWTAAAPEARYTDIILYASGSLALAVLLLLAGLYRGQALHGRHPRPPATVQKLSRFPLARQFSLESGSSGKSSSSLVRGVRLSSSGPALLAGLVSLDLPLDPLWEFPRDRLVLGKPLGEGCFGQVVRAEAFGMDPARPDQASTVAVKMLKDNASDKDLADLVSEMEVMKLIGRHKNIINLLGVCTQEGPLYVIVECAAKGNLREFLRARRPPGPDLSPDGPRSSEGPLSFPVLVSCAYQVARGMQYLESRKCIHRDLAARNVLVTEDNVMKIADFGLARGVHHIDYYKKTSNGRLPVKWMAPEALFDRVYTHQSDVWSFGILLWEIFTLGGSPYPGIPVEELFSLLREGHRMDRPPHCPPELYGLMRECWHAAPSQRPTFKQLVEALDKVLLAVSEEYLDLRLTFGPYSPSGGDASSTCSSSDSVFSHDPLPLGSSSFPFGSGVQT
Sequence of Ret(V804M)(h) (P07949 29-1114 V804M): as the sequence (P07949 29-1114 V804L) above, with L776M counted along it

SMILES: Cc1cc2c(F)c(Oc3nc(Nc4cc(C5CC5)[nH]n4)cc(N4CCN(C)CC4)n3)ccc2[nH]1 [Compound 10]
inhibition at 0.1 µM [1]: 99%
inhibition at 0.1 µM [2]: 99%
inhibition at 0.1 µM [3]: 99%
inhibition at 0.1 µM [4]: 103%
inhibition at 0.1 µM [5]: 96%
inhibition at 0.1 µM [6]: 99%
inhibition at 0.1 µM [7]: 100%
inhibition at 0.1 µM [8]: 88%
inhibition at 0.1 µM [9]: 100%
GI50 [10]: 0.19 nM
GI50 [11]: 0.19 nM
anti-tumor effect [12]: strong anti-tumor effect
anti-tumor effect [13]: anti-tumor effect

inhibition at 0.1 µM [1]: 102%
inhibition at 0.1 µM [2]: 102%
inhibition at 0.1 µM [3]: 102%
inhibition at 0.1 µM [4]: 102%
inhibition at 0.1 µM [5]: 101%
inhibition at 0.1 µM [6]: 99%
inhibition at 0.1 µM [7]: 101%
inhibition at 0.1 µM [8]: 78%
inhibition at 0.1 µM [9]: 100%
GI50 [10]: 0.41 nM
GI50 [11]: 0.29 nM
SMILES: Cc1cc2c(F)c(Oc3nc(Nc4cc(C5CC5)[nH]n4)cc(N4CCNCC4)n3)ccc2[nH]1 [Compound 11, N-(5-cyclopropyl-1H-pyrazol-3-yl)-2-((4-fluoro-2-methyl-1H-indol-5-yl)oxy)-6-(piperazin-1-yl)pyrimidin-4-amine]
anti-tumor effect [12]: strong anti-tumor effect

SMILES: C/C=C/c1cc(Nc2cc(N3CCN(C)CC3)nc(Oc3ccc4[nH]c(C)cc4c3F)n2)n[nH]1 [Compound 53]
pIC50 ([1]; Abl (H396P)): > 10.00
pIC50 ([2]; Abl(M351T)): 9.15
pIC50 ([3]; Abl (Q252H)): 9.30
pIC50 ([4]; Ret(V804L mutation)): 8.00
pIC50 ([5]; Ret(V804M mutation)): 8.22
pIC50 ([6]; FGFR2): 8.70
pIC50 ([7]; FGFR3): 9.00
pIC50 ([8]; FGFR4): 7.89
pIC50 ([9]; VEGFR1): 8.52
GI50 [10]: 0.69 nM
GI50 [11]: 0.15 nM

SMILES: C/C=C/c1cc(Nc2cc(N3CCNCC3)nc(Oc3ccc4[nH]c(C)cc4c3F)n2)n[nH]1 [Compound 68]
GI50 [10]: 0.26 nM
GI50 [11]: 0.16 nM
anti-tumor effect in combination with Abraxane [12]: significant antitumor efficacy
anti-tumor effect [12]: strong anti-tumor effect

GI50 [10]: 0.31 nM
GI50 [11]: 0.28 nM
SMILES: Cc1cc2c(F)c(Oc3nc(Nc4cc(C5CC5)[nH]n4)cc(N4CCNCC4)n3)cc(F)c2[nH]1 [Compound 82]
anti-tumor effect in combination with Abraxane [12]: significant antitumor efficacy
anti-tumor effect [12]: strong anti-tumor effect

SMILES: C/C=C/c1cc(Nc2cc(N3CCN(CCO)CC3)nc(Oc3cc(F)c4[nH]c(C)cc4c3F)n2)n[nH]1 [Compound 88]
GI50 [10]: 0.6 nM
GI50 [11]: 0.16 nM
anti-tumor effect [12]: strong anti-tumor effect
anti-tumor effect [13]: Inhibits Tumor Growth

SMILES: C/C=C/c1cc(Nc2cc(N3CCN(C)CC3)nc(Oc3cc(F)c4[nH]c(C)cc4c3F)n2)n[nH]1 [NTW-3456]
anti-tumor effect in combination with Abraxane [12]: significant anti-tumor activity
anti-tumor effect [12]: some anti-tumor activity
anti-tumor effect [13]: significant anti-tumor activity
